Reference: patent US9023398B2, “Method for improving the aqueous solubility of poorly-soluble substances” (Kabushiki Kaisha Sangi, priority 2009, dated 2015)
Each block holds one compound with its values, some of them ahead of it.

What was measured:
[1] = Dissolution test of poorly-soluble substances using distilled water; type: physicochemical
[2] = Dissolution test of poorly-soluble substances using 2nd fluid for disintegration test (pH 6.8) of the Japanese Pharmacopoeia; type: physicochemical
[3] = after dissolution test for 360 minutes, distilled water, 37±0.5° C.
[4] = 2nd fluid for disintegration test, elution time 3 min
[5] = 2nd fluid for disintegration test, elution time 10 min
[6] = 2nd fluid for disintegration test, elution time 30 min
[7] = 2nd fluid for disintegration test, elution time 360 min
[8] = after dissolution test for 360 minutes, Second disintegration test medium (pH 6.8), 37±0.5° C.
[9] = 2nd fluid for disintegration test, elution time 120 min

SMILES: CC(=O)Oc1ccccc1C(=O)O [Comparative Example 1-3, Aspirin]
Dissolved amount [1, 3]: 3110.4 µg/mL
Dissolved amount ([1]; water, elution time 1 min): 1831.9 µg/mL
Dissolved amount ([1]; water, elution time 3 min): 2934.9 µg/mL
Dissolved amount ([1]; water, elution time 10 min): 2985.3 µg/mL
Dissolved amount ([1]; water, elution time 60 min): 3105.7 µg/mL
Dissolved amount ([1]; water, elution time 180 min): 3108.1 µg/mL
Dissolved amount ([1]; water, elution time 360 min): 3110.4 µg/mL
Dissolved amount ([2]; 2nd fluid for disintegration test, elution time 1 min): 252.7 µg/mL
Dissolved amount [2, 4]: 1020.4 µg/mL
Dissolved amount [2, 5]: 5352.3 µg/mL
Dissolved amount [2, 6]: 5963.6 µg/mL
Dissolved amount ([2]; 2nd fluid for disintegration test, elution time 180 min): 6458.1 µg/mL
Dissolved amount [2, 7]: 8552.7 µg/mL
Dissolved amount [2, 8]: 6552.7 µg/mL

SMILES: O=[N+]([O-])O[C@H]1CO[C@H]2[C@@H]1OC[C@H]2O[N+](=O)[O-] [compound 30, Isosorbide Dinitrate]
Dissolved amount ([1]; water, elution time 30 min): 3490.4 µg/mL
Dissolved amount ([1]; water, elution time 120 min): 3516.8 µg/mL
Dissolved amount [2, 5]: 7154.4 µg/mL
Dissolved amount [2, 6]: 7134.1 µg/mL
Dissolved amount [2, 7]: 7148.8 µg/mL

SMILES: CC(=O)Nc1nnc(S(N)(=O)=O)s1 [compound 23, Acetazolamide]
Dissolved amount ([1]; water, elution time 3 min): 1040.6 µg/mL
Dissolved amount ([1]; water, elution time 10 min): 1238.7 µg/mL
Dissolved amount ([1]; water, elution time 30 min): 1244.8 µg/mL
Dissolved amount ([1]; water, elution time 120 min): 1251.4 µg/mL
Dissolved amount ([1]; water, elution time 360 min): 1212.0 µg/mL
Dissolved amount [2, 4]: 1331.6 µg/mL
Dissolved amount [2, 9]: 1721.6 µg/mL
Dissolved amount [2, 7]: 1654.9 µg/mL

SMILES: O=C1NC(=O)C(c2ccccc2)(c2ccccc2)N1 [compound 21, Phenyloin]
Dissolved amount ([1]; water, elution time 3 min): 26.5 µg/mL
Dissolved amount ([1]; water, elution time 10 min): 23.3 µg/mL
Dissolved amount ([1]; water, elution time 360 min): 24.1 µg/mL
Dissolved amount [2, 4]: 17.4 µg/mL
Dissolved amount [2, 5]: 42.1 µg/mL
Dissolved amount [2, 6]: 50.7 µg/mL
Dissolved amount [2, 9]: 27.2 µg/mL
Dissolved amount [2, 7]: 32.5 µg/mL

SMILES: COc1cc(Cc2cnc(N)nc2N)cc(OC)c1OC [compound 13, Trimethoprim]
Dissolved amount [1, 3]: 656.3 µg/mL
Dissolved amount [2, 8]: 1321.9 µg/mL

Second part, the compound after the results:

Dissolved amount ([1]; water, elution time 3 min): 7.8 µg/mL
Dissolved amount ([1]; water, elution time 10 min): 7.9 µg/mL
Dissolved amount ([1]; water, elution time 30 min): 8.0 µg/mL
Dissolved amount ([1]; water, elution time 120 min): 8.5 µg/mL
Dissolved amount ([1]; water, elution time 360 min): 8.2 µg/mL
Dissolved amount ([2]; Dipyridamole, 2nd fluid for disintegration test, elution time 3 min): 6.5 µg/mL
Dissolved amount ([2]; Dipyridamole, 2nd fluid for disintegration test, elution time 10 min): 6.5 µg/mL
Dissolved amount ([2]; Dipyridamole, 2nd fluid for disintegration test, elution time 30 min): 8.3 µg/mL
Dissolved amount ([2]; Dipyridamole, 2nd fluid for disintegration test, elution time 120 min): 8.5 µg/mL
Dissolved amount ([2]; Dipyridamole, 2nd fluid for disintegration test, elution time 360 min): 9.2 µg/mL
SMILES: OCCN(CCO)c1nc(N2CCCCC2)c2nc(N(CCO)CCO)nc(N3CCCCC3)c2n1 [compound 31, Dipyridamole]

Dissolved amount ([1]; Adenine, water, elution time 3 min): 1478.0 µg/mL
Dissolved amount ([1]; Adenine, water, elution time 10 min): 1557.3 µg/mL
Dissolved amount ([1]; Adenine, water, elution time 30 min): 1646.6 µg/mL
Dissolved amount ([1]; Adenine, water, elution time 360 min): 1696.4 µg/mL
Dissolved amount ([2]; Adenine, 2nd fluid for disintegration test, elution time 3 min): 1752.2 µg/mL
Dissolved amount ([2]; Adenine, 2nd fluid for disintegration test, elution time 10 min): 2028.0 µg/mL
Dissolved amount ([2]; Adenine, 2nd fluid for disintegration test, elution time 30 min): 2001.9 µg/mL
Dissolved amount ([2]; Adenine, 2nd fluid for disintegration test, elution time 120 min): 2001.4 µg/mL
Dissolved amount ([2]; Adenine, 2nd fluid for disintegration test, elution time 360 min): 1876.8 µg/mL
SMILES: Nc1ncnc2nc[nH]c12 [compound 45, Adenine]

Dissolved amount ([1]; Spironolactone, water, elution time 3 min): 29.6 µg/mL
Dissolved amount ([1]; Spironolactone, water, elution time 10 min): 31.9 µg/mL
Dissolved amount ([1]; Spironolactone, water, elution time 30 min): 33.7 µg/mL
Dissolved amount ([1]; Spironolactone, water, elution time 120 min): 39.7 µg/mL
Dissolved amount ([1]; Spironolactone, water, elution time 360 min): 35.2 µg/mL
Dissolved amount ([2]; Spironolactone, 2nd fluid for disintegration test, elution time 3 min): 71.0 µg/mL
Dissolved amount ([2]; Spironolactone, 2nd fluid for disintegration test, elution time 10 min): 85.6 µg/mL
Dissolved amount ([2]; Spironolactone, 2nd fluid for disintegration test, elution time 30 min): 89.3 µg/mL
Dissolved amount ([2]; Spironolactone, 2nd fluid for disintegration test, elution time 120 min): 92.0 µg/mL
Dissolved amount ([2]; Spironolactone, 2nd fluid for disintegration test, elution time 360 min): 93.7 µg/mL
SMILES: CC(=O)S[C@@H]1CC2=CC(=O)CC[C@]2(C)[C@H]2CC[C@@]3(C)[C@@H](CC[C@@]34CCC(=O)O4)[C@H]12 [compound 34, Spironolactone]

Dissolved amount ([1]; Haloperidol, water, elution time 3 min): 8.2 µg/mL
Dissolved amount ([1]; Haloperidol, water, elution time 10 min): 10.0 µg/mL
Dissolved amount ([1]; Haloperidol, water, elution time 30 min): 11.3 µg/mL
Dissolved amount ([1]; Haloperidol, water, elution time 360 min): 13.1 µg/mL
Dissolved amount ([2]; Haloperidol, 2nd fluid for disintegration test, elution time 3 min): 23.9 µg/mL
Dissolved amount ([2]; Haloperidol, 2nd fluid for disintegration test, elution time 10 min): 35.6 µg/mL
Dissolved amount ([2]; Haloperidol, 2nd fluid for disintegration test, elution time 120 min): 50.1 µg/mL
Dissolved amount ([2]; Haloperidol, 2nd fluid for disintegration test, elution time 360 min): 48.9 µg/mL
SMILES: O=C(CCCN1CCC(O)(c2ccc(Cl)cc2)CC1)c1ccc(F)cc1 [compound 46, Haloperidol]

Dissolved amount ([1]; water, elution time 3 min): 526.2 µg/mL
Dissolved amount ([1]; water, elution time 10 min): 805.6 µg/mL
Dissolved amount ([1]; water, elution time 30 min): 931.2 µg/mL
Dissolved amount ([1]; water, elution time 120 min): 994.9 µg/mL
Dissolved amount ([1]; water, elution time 360 min): 996.5 µg/mL
Dissolved amount [2, 4]: 2311.1 µg/mL
Dissolved amount [2, 6]: 2525.0 µg/mL
SMILES: CC(=O)SC[C@@H](C)C(=O)N1CCC[C@H]1C(=O)N[C@@H](Cc1ccccc1)C(=O)O [compound 24, Alacepril]
